Results as given in patent publication US11999727B2 (Tango Therapeutics, Inc., priority 2020, dated 2024).

Legend:
[1] = tested on: HAP1 MTAP-deleted cell line; assay: Viability assay, MTAP-deleted cell line; format: cell-based; details: Homo sapiens, read-out: HAP1 MTAP deleted viability
Text: Table 1 additionally indicates IC50 values in a viability assay for the MTAP-deleted cell line (column 10), indicating the effect of treatment with compound on cell survival.

[2] = target: T1, PRMT5 (Homo sapiens, UniProt O14744); assay: PRMT5 biochemical IC50 assay with SAM as cofactor; details: PRMT5, SAM as cofactor; read-out: SAM IC50
T1 construct: purchased Viva (custom protein)
T1 sequence (O14744 whole entry): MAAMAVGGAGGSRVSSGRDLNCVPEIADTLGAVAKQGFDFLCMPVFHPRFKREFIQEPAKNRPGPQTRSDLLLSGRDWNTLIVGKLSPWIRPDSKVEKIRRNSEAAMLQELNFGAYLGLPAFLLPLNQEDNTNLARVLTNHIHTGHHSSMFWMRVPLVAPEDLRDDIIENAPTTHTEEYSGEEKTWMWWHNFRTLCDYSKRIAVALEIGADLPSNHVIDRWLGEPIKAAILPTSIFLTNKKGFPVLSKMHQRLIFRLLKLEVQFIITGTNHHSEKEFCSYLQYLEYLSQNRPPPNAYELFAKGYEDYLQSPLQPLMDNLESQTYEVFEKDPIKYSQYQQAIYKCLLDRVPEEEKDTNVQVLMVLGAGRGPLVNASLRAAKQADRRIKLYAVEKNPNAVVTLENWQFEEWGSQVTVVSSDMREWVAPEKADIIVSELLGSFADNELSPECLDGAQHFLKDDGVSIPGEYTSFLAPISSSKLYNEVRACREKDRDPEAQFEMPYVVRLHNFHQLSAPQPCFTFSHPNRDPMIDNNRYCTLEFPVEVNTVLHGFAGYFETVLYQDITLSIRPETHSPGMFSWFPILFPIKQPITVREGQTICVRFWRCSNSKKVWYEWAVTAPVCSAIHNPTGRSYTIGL
T1 sequence (Q9BQA1 whole entry partner): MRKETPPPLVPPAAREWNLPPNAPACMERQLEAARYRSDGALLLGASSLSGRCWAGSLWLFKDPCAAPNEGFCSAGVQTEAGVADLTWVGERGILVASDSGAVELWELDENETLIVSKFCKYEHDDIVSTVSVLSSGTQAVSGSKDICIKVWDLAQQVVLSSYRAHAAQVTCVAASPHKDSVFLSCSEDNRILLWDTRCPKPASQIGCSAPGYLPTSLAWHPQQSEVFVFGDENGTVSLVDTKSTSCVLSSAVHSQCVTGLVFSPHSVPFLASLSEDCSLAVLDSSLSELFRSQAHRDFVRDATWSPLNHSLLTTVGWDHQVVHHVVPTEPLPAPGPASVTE

[3] = tested on: HAP1 MTAP-deleted cell line; assay: SDMA in-cell western assay, HAP1 MTAP-deleted; format: cell-based; details: for IC50: Homo sapiens, HAP1, SDMA in-cell western, HAP1 MTAP-deleted; for MTAP intact/deleted ratio: SDMA in-cell western
Method in brief: (§1)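 Isogenic HAP1 pair: the MTAP-intact line expresses endogenous MTAP, and the deleted line is MTAP-null. Symmetric dimethylarginine was detected by in-cell western and IC50 values derived for each line.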

[4] = tested on: HAP1 MTAP-intact cell line; assay: SDMA in-cell western assay, HAP1 MTAP-intact; format: cell-based; details: Homo sapiens, HAP1, SDMA in-cell western, HAP1 MTAP-intact; read-out: MTAP HAP1 intact IC50
Method in brief: as §1

[5] = target: T1, PRMT5; assay: PRMT5 biochemical IC50 assay with MTA as cofactor; details: PRMT5, MTA as cofactor; read-out: MTA IC50
[6] = target: T1, PRMT5; assay: PRMT5 biochemical IC50 assay with no cofactor; details: PRMT5, no cofactor
Text: Table 1 indicates IC50 values (μM) against PRMT5 for exemplary compounds in the presence of SAM as cofactor, with no cofactor, and with MTA as cofactor, respectively (columns 4-6). […] Ki values can be calculated from the IC50 values as described in the Examples section. As detailed in the Examples section, for the assay performed in the presence of SAM, IC50=Ki×1.5 (Ki=IC50/1.5).

[7] = HAP1, viability assay, MTAP-deleted cell line
[8] = read-out: HAP 1 MTAP deleted IC50
[9] = IC50 ratio HAP1 MTAP-intact / HAP1 MTAP-deleted
[10] = read-out: HAP1 MTAP deleted IC50
[11] = HAP1, viability IC50, MTAP-deleted cell line
[12] = read-out: No Cofactor/ rel IC50
[13] = HAP1, viability assay, HAP1 MTAP-deleted
[14] = HAP1, viability, HAP1 MTAP-deleted cell line

| Structure (SMILES) | IC50 [1, 7] [nM] | IC50 [2] [nM] | IC50 [3, 8] [nM] | MTAP intact/deleted ratio [3, 9] | IC50 [4] [nM] | IC50 [5] [nM] | IC50 ([6]; read-out: No Cofactor/rel IC50) [nM] | IC50 [3, 10] [nM] | IC50 [1, 11] [nM] | IC50 [6, 12] [nM] | IC50 [1, 13] [nM] | IC50 [1, 14] [nM] | MTAP intact/deleted ratio ([3]; IC50 ratio HAP1 MTAP-intact vs HAP1 MTAP-deleted) |
| --- | --- | --- | --- | --- | --- | --- | --- | --- | --- | --- | --- | --- | --- |
| Cc1cc(NC(=O)C(=O)N2C[C@H](C)CC[C@H]2c2cncc(Cl)c2)cnc1N (racemic) [Compound 1025, N-(6-amino-5-methyl-3-pyridyl)-2-[(2R,5S)-2-(5-chloro-3-pyridyl)-5-methyl-1-piperidyl]-2-oxo-acetamide] | 1000 to 10000 | > 500 | < 100 | A (an IC50 ratio greater than or equal to 10 fold) | > 1000 | 50 to 500 | 50 to 500 | – | – | – | – | – | – |
| Cc1cc(NC(=O)C(=O)N2C[C@H](C)CC[C@H]2c2ccc(NS(C)(=O)=O)cc2)cnc1N (single isomer, unassigned) [Compound 499] | < 1000 | 50 to 500 | – | A (an IC50 ratio greater than or equal to 10 fold) | > 1000 | < 50 | < 50 | 100 to 1000 | – | – | – | – | – |
| C[C@@H]1CC[C@@H](c2ccc3[nH]ncc3c2F)N(C(=O)C(=O)Nc2cncc(C(N)=O)c2)C1 (single isomer, unassigned) [Compound 612] | – | 50 to 500 | < 100 | A (an IC50 ratio greater than or equal to 10 fold) | > 1000 | < 50 | 50 to 500 | – | 1000 to 10000 | – | – | – | – |
| CC(=O)Nc1ccc([C@H]2CC[C@H](C)CN2C(=O)C(=O)Nc2cnc(N)c(C)c2)cn1 (single isomer, unassigned) [Compound 915] | 1000 to 10000 | 50 to 500 | < 100 | A (an IC50 ratio greater than or equal to 10 fold) | 100 to 1000 | < 50 | < 50 | – | – | – | – | – | – |
| Cc1cncc(NC(=O)C(=O)N2C[C@H](C)CC[C@H]2c2cccc(C)c2)c1 (single isomer, unassigned) [Compound 10] | > 10000 | 50 to 500 | > 1000 | B (an IC50 ratio greater than or equal to 3 fold but lower than 10 fold) | > 1000 | 50 to 500 | – | – | – | 50 to 500 | – | – | – |
| C[C@@H]1CC[C@@H](c2ccc(N)cc2)N(C(=O)C(=O)Nc2cncc(C(N)=O)c2)C1 (single isomer, unassigned) [Compound 381] | < 1000 | 50 to 500 | – | A (an IC50 ratio greater than or equal to 10 fold) | > 1000 | < 50 | < 50 | < 100 | – | – | – | – | – |
| C[C@H]1CC[C@H](c2ccc(Cl)cc2)N(C(=O)C(=O)Nc2cncc(C(N)=O)c2)C1 (single isomer, unassigned) [Compound 569] | – | > 500 | > 1000 | C (an IC50 ratio of less than 3 fold) | > 1000 | > 500 | > 500 | – | > 10000 | – | – | – | – |
| CCc1cc(NC(=O)C(=O)N2C[C@H](C)CC[C@H]2c2ccc(C)nc2)cnc1N (single isomer, unassigned) [Compound 756] | – | > 500 | – | B (an IC50 ratio greater than or equal to 3 fold but lower than 10 fold) | > 1000 | > 500 | > 500 | > 1000 | – | – | > 10000 | – | – |
| CCc1cc(NC(=O)C(=O)N2C[C@@H](C)CC[C@@H]2c2ccc3[nH]cnc3c2)cnc1N (single isomer, unassigned) [Compound 748] | – | 50 to 500 | – | A (an IC50 ratio greater than or equal to 10 fold) | 100 to 1000 | < 50 | < 50 | < 100 | – | – | < 1000 | – | – |
| Cc1ccc([C@@H]2CC[C@@H](C)CN2C(=O)C(=O)Nc2cncc(C)c2)cc1 (single isomer, unassigned) [Compound 16] | > 10000 | > 500 | > 1000 | B (an IC50 ratio greater than or equal to 3 fold but lower than 10 fold) | > 1000 | 50 to 500 | – | – | – | > 500 | – | – | – |
| Cc1cc(NC(=O)C(=O)N2C[C@H](C)CC[C@H]2c2cccc(N3CCN(C)CC3)c2)cnc1N (single isomer, unassigned) [Compound 1121] | > 10000 | > 500 | – | – | > 1000 | > 500 | > 500 | > 1000 | – | – | – | – | – |
| CCc1cc(NC(=O)C(=O)N2C[C@@H](C)CC[C@@H]2c2ccc3cc(C)c(C4CCN(C)CC4)nc3c2)cnc1N [Compound 1368, N-(6-amino-5-ethyl-3-pyridyl)-2-oxo-2-[(2R,5S)-5-methyl-2-[3-methyl-2-(1-methyl-4-piperidyl)-7-quinolyl]-1-piperidyl]acetamide] | – | 50 to 500 | < 100 | A (an IC50 ratio greater than or equal to 10 fold) | < 100 | < 50 | – | – | – | < 50 | – | < 1000 | – |
| Cc1cc(NC(=O)C(=O)N2C[C@H](C)CC[C@H]2c2ccc3c(c2)CCC(=O)N3)cnc1C(F)F (racemic) [Compound 641, N-[6-(Difluoromethyl)-5-methyl-3-pyridyl]-2-[(2S,5R)-5-methyl-2-(2-oxo-3,4-dihydro-1H-quinolin-6-yl)-1-piperidyl]-2-oxo-acetamide] | – | 50 to 500 | 100 to 1000 | – | > 1000 | 50 to 500 | 50 to 500 | – | 1000 to 10000 | – | – | – | – |
| C[C@@H]1CC[C@@H](c2cc(F)c(F)c(F)c2)N(C(=O)C(=O)Nc2cncc(C(N)=O)c2)C1 (single isomer, unassigned) [Compound 476] | > 10000 | > 500 | – | C (an IC50 ratio of less than 3 fold) | > 1000 | > 500 | > 500 | > 1000 | – | – | – | – | – |
| Cc1ccc([C@@H]2CC[C@H](C)CN2C(=O)C(=O)Nc2cncc(C(N)=O)c2)nc1 (racemic) [Compound 880, 5-[[2-[(2R,5R)-5-Methyl-2-(5-methyl-2-pyridyl)-1-piperidyl]-2-oxo-acetyl]amino]pyridine-3-carboxamide] | – | > 500 | – | A (an IC50 ratio greater than or equal to 10 fold) | > 1000 | 50 to 500 | > 500 | 100 to 1000 | – | – | > 10000 | – | – |
| CCc1cc(NC(=O)C(=O)N2C[C@@H](C)CC[C@@H]2c2ccc(NC3CCN(C)CC3)nc2)cnc1N [Compound 1306, N-(6-Amino-5-ethyl-3-pyridyl)-2-[(2R,5S)-5-methyl-2-[6-[(1-methyl-4-piperidyl)amino]-3-pyridyl]-1-piperidyl]-2-oxo-acetamide] | – | 50 to 500 | < 100 | A (an IC50 ratio greater than or equal to 10 fold) | 100 to 1000 | < 50 | – | – | – | < 50 | – | < 1000 | – |
| CCc1cc(NC(=O)C(=O)N2C[C@@H](C)CC[C@@H]2c2cccc(OC[C@H]3CCN(C)C3)c2)cnc1N [Compound 1179, N-(6-amino-5-ethylpyridin-3-yl)-2-((2R,5S)-5-methyl-2-(3-(((S)-1-methylpyrrolidin-3-yl)methoxy)phenyl)piperidin-1-yl)-2-oxoacetamide] | < 1000 | < 50 | – | – | < 100 | < 50 | < 50 | < 100 | – | – | – | – | A (an IC50 ratio greater than or equal to 10 fold) |
